Data: patent US20130236504A1, “Delivery System for Enhancing Drug Efficacy” (CLEMSON UNIVERSITY, priority 2012, published 2013)

System: U138 cells
Test: MTT cell viability / cytotoxicity assay in U138 cells
Description: Various drug combinations were incubated with U138 cells in cell culture media and the cells were then washed with PBS and added fresh media.

[1] = therapeutic agent at 100 nM compared with non-toxic chemo-adjuvant O6-BG at 100 uM (FIG. 4)

SMILES | cytotoxicity (free O6-BG 100 μg/ml (FIG. 6)) | cell viability (incubation with various concentrations of O6-BG (FIG. 3)) | cell viability [1]
Nc1nc(OCc2ccccc2)c2nc[nH]c2n1 [O6-BG, O6-Benzylguanine] | not cytotoxic | some effect on cell viability at very high concentrations | –
C=CC(=O)Nc1cc2c(Nc3ccc(F)c(Cl)c3)ncnc2cc1OCCCN1CCOCC1 [canertinib] | – | – | cell viability is lower
CC(=O)O[C@H]1C(=O)[C@@]2(C)[C@H]([C@H](OC(=O)c3ccccc3)[C@]3(O)C[C@H](OC(=O)[C@H](O)[C@@H](NC(=O)c4ccccc4)c4ccccc4)C(C)=C1C3(C)C)[C@]1(OC(C)=O)CO[C@@H]1C[C@@H]2O [paclitaxel] | – | – | cell viability is lower
